# Data reported in patent US20150322033A1, “ANTIBACTERIAL AGENT” (priority 2012, published 2015).
# Read-outs that look alike come from different tables or passages of the source.
# What was measured:
# [1] = system: S. aureus FDA209P (ATCC 6538P); test: microbe, parasite or virus in culture; format: cell-based, Staphylococcus aureus; settings: Staphylococcus aureus
# Outline: (§1)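 Overnight TSB cultures at 37 °C adjusted to A578 0.3, diluted 500-fold in CAMHB and mixed 1:1 with compound in CAMHB; static overnight incubation at 37 °C. MIC reported in mg/L; Mu50 NR-1 also tested in some runs.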
# [2] = system: S. aureus Mu50; test: microbe, parasite or virus in culture; format: cell-based, Staphylococcus aureus; settings: for MIC: Staphylococcus aureus
# Outline: as §1
# [3] = molecular target: T1, GyrA(wt) + GyrB(wt) (Staphylococcus aureus, UniProt P20831); test: DNA cleavage assay with GyrA(wt) and GyrB(wt); format: biochemical; settings: for Ratio of cleaved DNA (%) / Ratio of substrate plasmid DNA (%): Table 18
# T1 construct: made in house; host or cells: E. coli BL21(DE3)
# Excerpt: The gene sequence encoding the wild-type GyrA of Staphylococcus aureus (henceforth also referred to as “GyrA(wt)”) shown as SEQ ID NO: 1 was cloned into the plasmid pMAL-c2 (produced by New England Biolabs) (the resultant is henceforth also referred to as “pMAL-c2-gyrA”).
# The gene sequence encoding the wild-type GyrB of Staphylococcus aureus (henceforth also referred to as “GyrB(wt)”) shown as SEQ ID NO: 2 was cloned into the plasmid pMAL-c2 (produced by New England Biolabs) (the resultant is henceforth also referred to as “pMAL-c2-gyrB”).
# (§2) E. coliBL21(DE3) (produced by Invitrogen) was transformed with pMAL-c2-gyrA mentioned above, with pMAL-c2-gyrB mentioned above, or with pMAL-c2-SAGAmut84 containing a mutant gyrA encoding the amino acid sequence of GyrA(wt) in which serine residue at the 84th position from the amino terminus is substituted with a leucine residue (see, Hiramatsu K., Igarashi M., Morimoto Y, Baba T., Umekita M., Akamatsu Y., Int. J. Antimicrob. Agents, 2012 June; 39(6), 478-85). To the culture medium of the resulting transformed Escherichia coli, 1 mM […] (produced by Wako Pure Chemical Industries) was added to induce expression of maltose-binding GyrA(wt), maltose-binding GyrB(wt), or maltose-binding mutant GyrA(S84L), and the bacterium was cultured overnight at 25° C. After completion of the culture, the cells were collected, and suspended in a buffer (20 mM Tris-HCl (pH 8.0), 200 mM sodium chloride, 1 mM ethylenediaminetetraacetic acid (EDTA), 1 mM dithiothreitol (DTT)), a protein extracting reagent (10× BugBuster (registered trademark), produced by Novagen) in a volume of 1/10 of the volume of the buffer, and 2.5 μL/10 mL of the buffer of Benzonase (registered trademark) nuclease (produced by Novagen) were added, the mixture was left standing at 25° C. for 30 minutes, and the cells were disrupted and lysed to obtain a disrupted cell suspension containing the maltose-binding GyrA(wt), maltose-binding GyrB(wt), or maltose-binding mutant GyrA(S84L).
# (§3) Then, each disrupted cell suspension mentioned above was added to a column filled with an amylose resin covalently bound with maltose (produced by Novagen). A buffer (20 mM Tris-HCl (pH 8.0), 200 mM sodium chloride, 1 mM EDTA) containing 10 mM maltose was added to the column to elute the maltose-binding GyrA(wt), maltose-binding GyrB(wt), and maltose-binding mutant GyrA(S84L).
# (§4) To each eluate, 4 units/1 mL of the eluate of protease (Factor Xa, produced by Amersham) was added, and the mixture was left standing at 25° C. for 3 hours and 30 minutes to cleave the maltose-binding proteins, GyrA(wt), GyrB(wt), and mutant GyrA(S84L) from the maltose-binding GyrA(wt), maltose-binding GyrB(wt), and maltose-binding mutant GyrA(S84L).
# (§5) Then, GyrA(wt), GyrB(wt), and mutant GyrA(S84L) were concentrated by using an ultrafiltration unit (YM-50 Filter Unit, produced by Millipore).
# (§6) The concentrated GyrA(wt), GyrB(wt), and mutant GyrA(S84L) were each suspended in a buffer (35 mM Tris-HCl (pH 7.5), 24 mM potassium chloride, 6 mM magnesium chloride, 1.8 mM spermidine, 0.36 mg/mL bovine serum albumin, 5 mM DTT, 50 volume % glycerol) at a concentration of 1 μg/μL for GyrA(wt), 2 μg/μL for GyrB(wt), or 1 μg/μL for mutant GyrA(S84L).
# A substrate plasmid DNA, pTWV228 (0.4 μg, produced by Takara Bio), and levofloxacin (LVFX) or apigenin were added to a buffer (35 mM Tris-HCl (pH 7.5), 24 mM potassium chloride, 6 mM magnesium chloride, 1.8 mM spermidine, 0.36 mg/mL bovine serum albumin, 5 mM DTT), and 0.15 μL of the enzyme solution of GyrA(wt) and […] of the enzyme solution of GyrB(wt) were added to the mixture to prepare a reaction mixture in a total volume of 20
# Levofloxacin was added at a final concentration of 0, 0.5, 1, 2, 4, 8, 16, or 32 μg/mL.
# The aforementioned reaction solution was left standing at 25° C. for 30 minutes to allow the reaction. […]
# [4] = molecular target: T2, GyrA(S84L) + GyrB(wt) (Staphylococcus aureus, UniProt P20831, S84L); test: DNA cleavage assay with mutant GyrA(S84L) and GyrB(wt); format: biochemical; settings: IC50 (μg/mL) GyrA(S84L) + GyrB(wt), Example 9, Table 18
# T2 construct: made in house; host or cells: E. coli BL21(DE3)
# Excerpt: as §2, §3, §4, §5, §6
# An assay was performed in the same manner as that of the cleavage of the plasmid DNA with GyrA(wt) and GyrB(wt) mentioned above, provided that 0.15 μL of an enzyme solution of mutant GyrA(S84L) and 0.2 μL of the enzyme solution of GyrB(wt) were added instead of […] of the enzyme solution of GyrA(wt) and 0.2 μL of the enzyme solution of GyrB(wt). In FIGS. 3 and 4, the symbols “S”, “L”, and “N” have the same meanings as those explained for FIGS. 1 and 2.
# IC50 value of levofloxacin or apigenin was also calculated from the visualized images shown in FIGS. 3 and 4 in the same manner as that used for the calculation using the results shown in FIGS. 1 and 2.
# The DNA cleavage assay was performed with M-246 in the same manner as that used in Example 4.
# [5] = system: S. aureus Mu50 NR1-1; test: MIC by broth microdilution, S. aureus Mu50 NR1-1; format: cell-based; settings: Staphylococcus aureus, MU50NR11; Example 3, Table 13; read-out: MIC (mg/L) Mu50 NR1-1 (S80F, w)
# Method: MIC values of the flavones and quinolone for the strains were measured in the same manners as those of Example 1, except that S. aureus Mu50 NR-1 was also used as Staphylococcus aureus in addition to S. aureus FDA209P and S. aureus Mu50, cell suspensions of the strains were prepared.
# S. aureus Mu50 NR1-1 mentioned in Table 13 is a strain selected stepwise from the clinically isolated S. aureus Mu50 strain with deoxynybomycin, and it has a topoisomerase IV encoded by parC in which a […] (see, Hiramatsu K. et al., J. Antimicrob. Agents, 2012, June; 39 (6), 478-85).
# In Table 13, the descriptions in the parentheses after the strains indicate the mutated amino acid residue and its position, as represented by (the mutation of topoisomerase IV resulting from the mutation of parCand the mutation of DNA gyrase resulting from the mutation of gyrA). The character “w” means wild-type, representing without mutation.
# 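Throughout, for MIC ratio: ratio is FDA209P MIC divided by Mu50 MIC.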
compound,measurement,setting,value
COc1ccc2c(=O)cc(-c3ccc(O)c(OC)c3)oc2c1 [M-246],MIC,"[1]; Example 8, Table 17, read-out: MIC FDA209P",128 mg/L
same,MIC,"[2]; MU50, read-out: MIC Mu50, Example 8, Table 17",4 mg/L
same,Ratio of cleaved DNA (%),[3]; 0.5 μg/mL,18%
same,Ratio of substrate plasmid DNA (%),[3]; 0.5 μg/mL,82%
same,Ratio of cleaved DNA (%),[3]; 1 μg/mL,23%
same,Ratio of substrate plasmid DNA (%),[3]; 1 μg/mL,77%
same,Ratio of cleaved DNA (%),[3]; 2 μg/mL,29%
same,Ratio of substrate plasmid DNA (%),[3]; 2 μg/mL,71%
same,Ratio of cleaved DNA (%),[3]; 4 μg/mL,40%
same,Ratio of substrate plasmid DNA (%),[3]; 4 μg/mL,60%
same,Ratio of cleaved DNA (%),[3]; 8 μg/mL,47%
same,Ratio of substrate plasmid DNA (%),[3]; 8 μg/mL,53%
same,Ratio of cleaved DNA (%),[3]; 16 μg/mL,56%
same,Ratio of substrate plasmid DNA (%),[3]; 16 μg/mL,44%
same,Ratio of cleaved DNA (%),[3]; 32 μg/mL,67%
same,Ratio of substrate plasmid DNA (%),[3]; 32 μg/mL,33%
same,IC50,"[3]; IC50 (μg/mL) GyrA(wt) + GyrB(wt), Example 9, Table 18",53.6 µM
same,IC50,[4],3.35 µM
"CCn1cc(C(=O)O)c(=O)c2cc(F)c(N3CCNCC3)cc21 [Norfloxacin, norfloxacin, reference compound]",MIC,"[1]; Example 2, Table 12, read-out: MIC (mg/L) S. aureus FDA209P",0.5 mg/L
same,MIC,"[1]; Example 3, Table 13, read-out: MIC (mg/L) FDA209P (w, w)",0.5 mg/L
same,MIC ratio,[2]; (MIC value for S. aureus FDA209P)/(MIC value for S. aureus Mu50),0.008
same,MIC,"[2]; MU50, read-out: MIC (mg/L) S. aureus Mu50, Example 2, Table 12",64 mg/L
same,MIC,[5],16 mg/L
